From patent US20240287074A1, “SALTS AND CRYSTALS” (Kinoxis Therapeutics Pty Ltd, priority 2020, published 2024)
Where a name gives a salt, the structure may show the parent alone. Read-outs that look alike come from different tables or passages of the source. Marks after values point to notes of the source that are not given here.

Columns and labels:
[1] = target: T1, orthosteric oxytocin receptor binding sites (Homo sapiens, UniProt P30559); details: cited from earlier work
T1 sequence (P30559 1-389): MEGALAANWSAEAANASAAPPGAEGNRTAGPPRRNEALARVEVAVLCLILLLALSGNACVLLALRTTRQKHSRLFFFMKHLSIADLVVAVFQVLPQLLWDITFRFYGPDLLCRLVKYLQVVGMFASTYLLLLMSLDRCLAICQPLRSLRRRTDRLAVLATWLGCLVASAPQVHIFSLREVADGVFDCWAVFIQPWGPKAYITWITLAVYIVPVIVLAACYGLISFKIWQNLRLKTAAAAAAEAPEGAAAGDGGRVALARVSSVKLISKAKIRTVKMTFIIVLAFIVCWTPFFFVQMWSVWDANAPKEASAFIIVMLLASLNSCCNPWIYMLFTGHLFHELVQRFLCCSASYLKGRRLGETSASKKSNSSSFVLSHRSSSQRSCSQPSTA

[2] = Oral pharmacokinetics in rats; assay type: in vivo; details: for Plasma AUC0-inf/Dose / Plasma Cmax/Dose: dose-normalised; for Plasma AUC0-inf/Dose / Plasma Cmax/Dose / BA % / % Dose in urine: male Sprague Dawley rats; for Plasma AUC0-inf/Dose / Plasma Cmax/Dose / % Dose in urine: dihydrochloride; for BA % / % Dose in urine / Cmax / half-life / AUC(0-inf) / Tmax: 5 mg/kg target dose (freebase equivalent), 5 mg/kg; for BA % / Cmax / half-life / AUC(0-inf) / Tmax: mean ± SD; for BA %: n = 3, dihydrochloride; for % Dose in urine: urine up to 24 h; for Cmax / half-life / AUC(0-inf) / Tmax: male, Sprague Dawley, rat, plasma, po; for Cmax: n = 3; for half-life: n = 3, read-out: Apparent t1/2 (converted); for AUC(0-inf): n = 3, read-out: Plasma AUC0-inf; for Tmax: n = 3, read-out: Tmax
Experimental: N=3 rats were run in each of the four conditions: • (1) Di-HCL salt in saline • (2) Di-HCL salt in methocel • (3) Phosphate form 1 in saline • (4) Phosphate form 1 in methocel
On the day of dosing the solid compounds were dissolved in either Saline (0.9%) or 0.5% hydroxypropyl methylcellulose (Methocel E3 Premium LV) in Milli-Q water. The formulations were then thoroughly vortexed to produce colourless solutions.
Overnight-fasted rats with adlibitum access to water were administered their dose of the various forms of the compound of the invention via oral gavage (PO) at a dose volume of 3 ml/kg and a dose of 5 mg/kg freebase equivalent. Food access was re-instated 4 hours (h) post-dose. Samples of arterial blood were collected up to 24 h post-dose. After collection, samples were centrifuged, plasma was removed and stored frozen at −80° C. before being analysed by LC-MS. Urine samples were collected at pre, 0-4 h, 4-7 h and 7-24 h post-dose and were analysed by LC-MS following extraction.

[3] = Dynamic / gravimetric vapour sorption (DVS/GVS) hygroscopicity; assay type: physicochemical
Experimental: Approximately, 10-20 mg of sample was placed into a mesh vapour sorption balance pan and loaded into a DVS Intrinsic dynamic vapour sorption balance by Surface Measurement Systems. The sample was subjected to a ramping profile from 40-90% relative humidity (RH) at 10% increments, maintaining the sample at each step until a stable weight had been achieved (dm/dt 0.004%, minimum step length 30 minutes, maximum step length 500 minutes) at 25° C. After completion of the sorption cycle, the sample was dried using the same procedure to 0% RH and then a second sorption cycle back to 40% RH. Two cycles were performed. The weight change during the sorption/desorption cycles were plotted, allowing for the hygroscopic nature of the sample to be determined. XRPD analysis was then carried out on any solid retained.
Approximately 10-20 mg of sample was placed into a mesh vapour sorption balance pan and loaded into an IGASorp Moisture Sorption Analyser balance by Hiden Analytical. The sample was subjected to a ramping profile from 40-90% relative humidity (RH) at 10% increments, maintaining the sample at each step until a stable weight had been achieved (98% step completion, minimum step length 30 minutes, maximum step length 60 minutes) at 25° C. After completion of the sorption cycle, the sample was dried using the same procedure to 0% RH, and finally taken back to the starting point of 40% RH. Two cycles were performed. The weight change during the sorption/desorption cycles were plotted, allowing for the hygroscopic nature of the sample to be determined.

[4] = tested on: C57BL/6 mouse model of opioid withdrawal; test: Naloxone precipitated oxycodone withdrawal-induced jumping; assay type: in vivo; details: 7.3 mg/kg FBE i.p., C57BL/6 mice, 30 min session, vs OXY_VEH
Experimental: Two cohorts of adult male C57BL/6 mice were run assessing the effects of 7.3 mg/kg freebase equivalent (FBE) IP of the compound of the invention in the dihydrochloride salt form (CMPD1-2HCL) and the phosphate form 1 (CMPD1-PO4) on naloxone precipitated withdrawal-induced jumping.
The first cohort of mice (N=30) were split into the following conditions: • (1) Vehicle, 0 mg/kg (n=10); • (2) oxycodone, 0 mg/kg compound of the invention FBE in 2HCL salt form (n=10); • (3) oxycodone, 7.3 mg/kg compound of the invention FBE in 2HCL salt form (n=10).
The second cohort of mice (N=24) were split into the following conditions: • (1) Vehicle, 0 mg/kg (n=8); • (2) oxycodone, 0 mg/kg compound of the invention FBE in PO4 salt form (n=8); • (3) oxycodone, 7.3 mg/kg compound of the invention FBE in PO4 salt form (n=8).
Mice in the oxycodone conditions received i.p. injections of oxycodone for 5 days according to the schedule and doses set out in Table 8. The morning and afternoon doses were separated by 7 h. Mice in the vehicle condition received injections of vehicle saline instead of oxycodone. […]
Testing involved placing mice individually into a 20 (I)×20 (w)×30 (h) cm arena for 30 min. […] Number of jumps were scored from the videos by an experienced experimenter blind to conditions.
Data were analysed by SPSS using oneway ANOVA and planned contrasts.

[5] = tested on: orthosteric vasopressin receptor binding sites; details: cited from earlier work

SMILES: Cn1ncc2c1Nc1ccccc1NC2 [Di-hydrochloride salt, 1-Methyl-1,4,5,10-tetrahydropyrazolo[3,4-b][1,5]benzodiazepine dihydrochloride]
- binding affinity for the orthosteric oxytocin receptor binding sites [1]: without demonstrating significant binding affinity
- Plasma AUC0-inf/Dose ([2]; Methocel): 0.91 ± 0.12 (μg*h/mL)/(mg/kg)
- Plasma Cmax/Dose ([2]; Methocel): 0.40 ± 0.02 (μg/mL)/(mg/kg)
- Plasma AUC0-inf/Dose ([2]; Saline): 1.14 ± 0.12 (μg*h/mL)/(mg/kg)
- Plasma Cmax/Dose ([2]; Saline): 0.61 ± 0.29 (μg/mL)/(mg/kg)
- BA % ([2]; Methocel): 98.9 ± 13^b %
- % Dose in urine ([2]; Methocel): 0.224 ± 0.14%
- BA % ([2]; Saline): 124 ± 13%
- % Dose in urine ([2]; Saline): 0.184 ± 0.059%
- Cmax ([2]; Methocel): 1800 ± 110 ng/mL
- half-life ([2]; Methocel): 40.8 ± 12 min
- AUC(0-inf) ([2]; Methocel): 4100 ± 520 ng·h/mL
- Tmax ([2]; Methocel): 19.8 ± 6 min
- Cmax ([2]; Saline): 2930 ± 1360 ng/mL
- half-life ([2]; Saline): 41.4 ± 6 min
- AUC(0-inf) ([2]; Saline): 5460 ± 540 ng·h/mL
- Tmax ([2]; Saline): 45 ± 24 min
- relative humidity above which form change is indicated by DVS [3]: above 60 % RH
- relative humidity below which the weight change is reversible (DVS) [3]: below 30 % RH
- hygroscopicity ([3]; DVS, 25° C., dihydrochloride): high hygroscopicity
- oxycodone withdrawal-induced jumping [4]: significantly inhibited
- binding affinity for the orthosteric vasopressin receptor binding sites [5]: without demonstrating significant binding affinity
